Results as given in ChEMBL document CHEMBL3045151, “Long-term pre-exposure of the pest mite Tyrophagus putrescentiae to sub-lethal residues of bifenthrin on rapeseed did not affect its susceptibility to bifenthrin” (2011).
Activity calls are given as the source filed them. The rule behind the calls is not given here.

Key:
[1] = tested on: Tyrophagus putrescentiae; experiment: Insecticidal activity against Tyrophagus putrescentiae from compound treated origin in compound treated rapeseed assessed as respiration ppm of co2 per gram of mite fresh weight per hr at sub-lethal concentration at 25 degC, 85% RH measured after 147 days; type: functional
[2] = tested on: Tyrophagus putrescentiae; experiment: Insecticidal activity against Tyrophagus putrescentiae from control origin in compound treated rapeseed assessed as respiration ppm of co2 at sub-lethal concentration at 25 degC, 85% RH measured after 147 days; type: functional
[3] = tested on: Tyrophagus putrescentiae; experiment: Insecticidal activity against Tyrophagus putrescentiae from compound treated origin in compound treated rapeseed assessed as increase in population rate at sub-lethal concentration at 25 degC, 85% RH measured after 147 days; type: functional, organism-based
[4] = tested on: Tyrophagus putrescentiae; experiment: Insecticidal activity against Tyrophagus putrescentiae from control origin in compound treated rapeseed assessed as increase in population rate at sub-lethal concentration at 25 degC, 85% RH measured after 147 days; type: functional, organism-based
[5] = tested on: Tyrophagus putrescentiae; experiment: Insecticidal activity against Tyrophagus putrescentiae in compound treated rapeseed assessed as decrease in population measured after 21 days; type: functional
[6] = tested on: Tyrophagus putrescentiae; experiment: Insecticidal activity against Tyrophagus putrescentiae in compound treated rapeseed assessed as decrease in population at 0.15 to 150 ug/100 g of rapeseed measured after 21 days; type: functional, organism-based
[7] = tested on: Tyrophagus putrescentiae; experiment: Insecticidal activity against Tyrophagus putrescentiae in compound treated rapeseed assessed as mortality after 147 days (reference value: 2.4 ug/cm'2); type: functional
[8] = tested on: Tyrophagus putrescentiae; experiment: Insecticidal activity against Tyrophagus putrescentiae in compound treated rapeseed assessed as mortality (LD95) after 126 days (reference value: 2.4 ug/cm'2); type: functional
[9] = tested on: Tyrophagus putrescentiae; experiment: Insecticidal activity against Tyrophagus putrescentiae in compound treated rapeseed assessed as mortality (LD95) after 105 days (reference value: 2.4 ug/cm'2); type: functional
[10] = tested on: Tyrophagus putrescentiae; experiment: Insecticidal activity against Tyrophagus putrescentiae in compound treated rapeseed assessed as mortality (LD95) after 84 days (reference value: 2.4 ug/cm'2); type: functional
[11] = tested on: Tyrophagus putrescentiae; experiment: Insecticidal activity against Tyrophagus putrescentiae in compound treated rapeseed assessed as mortality (LD95) after 63 days (reference value: 2.4 ug/cm'2); type: functional
[12] = tested on: Tyrophagus putrescentiae; experiment: Insecticidal activity against Tyrophagus putrescentiae in compound treated rapeseed assessed as mortality (LD95) after 42 days (reference value: 2.4 ug/cm'2); type: functional
[13] = tested on: Tyrophagus putrescentiae; experiment: Insecticidal activity against Tyrophagus putrescentiae in compound treated rapeseed assessed as mortality (LD95) after 21 days (reference value: 2.4 ug/cm'2); type: functional
[14] = tested on: Tyrophagus putrescentiae; experiment: Insecticidal activity against Tyrophagus putrescentiae in compound treated rapeseed assessed as mortality (LD50) after 147 days (reference value: 0.78 ug/cm'2); type: functional
[15] = tested on: Tyrophagus putrescentiae; experiment: Insecticidal activity against Tyrophagus putrescentiae in compound treated rapeseed assessed as mortality (LD50) after 126 days (reference value: 0.78 ug/cm'2); type: functional
[16] = tested on: Tyrophagus putrescentiae; experiment: Insecticidal activity against Tyrophagus putrescentiae in compound treated rapeseed assessed as mortality (LD50) after 105 days (reference value: 0.78 ug/cm'2); type: functional
[17] = tested on: Tyrophagus putrescentiae; experiment: Insecticidal activity against Tyrophagus putrescentiae in compound treated rapeseed assessed as mortality (LD50) after 84 days (reference value: 0.78 ug/cm'2); type: functional
[18] = tested on: Tyrophagus putrescentiae; experiment: Insecticidal activity against Tyrophagus putrescentiae in compound treated rapeseed assessed as mortality (LD50) after 63 days (reference value: 0.78 ug/cm'2); type: functional
[19] = tested on: Tyrophagus putrescentiae; experiment: Insecticidal activity against Tyrophagus putrescentiae in compound treated rapeseed assessed as mortality (LD50) after 42 days (reference value: 0.78 ug/cm'2); type: functional
[20] = tested on: Tyrophagus putrescentiae; experiment: Insecticidal activity against Tyrophagus putrescentiae in compound treated rapeseed assessed as mortality (LD50) after 21 days (reference value: 0.78 ug/cm'2); type: functional

Cc1c(COC(=O)[C@@H]2[C@H](/C=C(\Cl)C(F)(F)F)C2(C)C)cccc1-c1ccccc1 [BIFENTHRIN]
Activity [1]: 745 ppm/g/hr | Activity [2]: 896 ppm/g/hr | Activity [3]: inactive | Activity [4]: inactive | ED50 [5]: 2.7 µg | Activity [6]: Active | LD95 [7]: 1.8 microg/cm2 | LD95 [8]: 1.6 microg/cm2 | LD95 [9]: 2.9 microg/cm2 | LD95 [10]: 2.3 microg/cm2 | LD95 [11]: 2 microg/cm2 | LD95 [12]: 2.4 microg/cm2 | LD95 [13]: 1.6 microg/cm2 | LD50 [14]: 0.16 microg/cm2 | LD50 [15]: 0.44 microg/cm2 | LD50 [16]: 1.14 microg/cm2 | LD50 [17]: 0.46 microg/cm2 | LD50 [18]: 0.24 microg/cm2 | LD50 [19]: 0.65 microg/cm2 | LD50 [20]: 0.44 microg/cm2
